Experimental data published in patent US20110178064A1, “SPIRO CONDENSED […] DERIVATIVES FOR USE AS ANTIBACTERIAL” (A[…]&D, priority 2007, published 2011).

Molecular target: Escherichia coli DNA gyrase A/B tetramer (Escherichia coli, UniProt P0AES4+P0AES6)
Experiment: DNA gyrase supercoiling activity fluorescence polarisation assay
Assay type: biochemical
Description: The supercoiling reactions may be quenched by the addition of 10 microliters/well of 40 nM oligodeoxynucleotide probe in 3× triplex-forming buffer consisting of 150 mM NaCl, and 150 mM sodium acetate at pH 3.5. The oligodeoxynucleotide probe may be 5′-BODIPY-FL-labeled […]. After 60 minutes, the fluorescence anisotropy of the BODIPY-FL may be measured in a Tecan Ultra plate reader, using 485 nm excitation and 535 nm emission filters equipped with polarizers. The IC50 may be determined by nonliner regression using two control reactions. The first contains no test compound but 0.8% DMSO (100% activity) while the second control reaction contains 5 uM Ciprofloxacin and 0.8% DMSO (0% activity).

Chain of Escherichia coli DNA gyrase A/B tetramer (P0AES4 whole entry, one chain of several): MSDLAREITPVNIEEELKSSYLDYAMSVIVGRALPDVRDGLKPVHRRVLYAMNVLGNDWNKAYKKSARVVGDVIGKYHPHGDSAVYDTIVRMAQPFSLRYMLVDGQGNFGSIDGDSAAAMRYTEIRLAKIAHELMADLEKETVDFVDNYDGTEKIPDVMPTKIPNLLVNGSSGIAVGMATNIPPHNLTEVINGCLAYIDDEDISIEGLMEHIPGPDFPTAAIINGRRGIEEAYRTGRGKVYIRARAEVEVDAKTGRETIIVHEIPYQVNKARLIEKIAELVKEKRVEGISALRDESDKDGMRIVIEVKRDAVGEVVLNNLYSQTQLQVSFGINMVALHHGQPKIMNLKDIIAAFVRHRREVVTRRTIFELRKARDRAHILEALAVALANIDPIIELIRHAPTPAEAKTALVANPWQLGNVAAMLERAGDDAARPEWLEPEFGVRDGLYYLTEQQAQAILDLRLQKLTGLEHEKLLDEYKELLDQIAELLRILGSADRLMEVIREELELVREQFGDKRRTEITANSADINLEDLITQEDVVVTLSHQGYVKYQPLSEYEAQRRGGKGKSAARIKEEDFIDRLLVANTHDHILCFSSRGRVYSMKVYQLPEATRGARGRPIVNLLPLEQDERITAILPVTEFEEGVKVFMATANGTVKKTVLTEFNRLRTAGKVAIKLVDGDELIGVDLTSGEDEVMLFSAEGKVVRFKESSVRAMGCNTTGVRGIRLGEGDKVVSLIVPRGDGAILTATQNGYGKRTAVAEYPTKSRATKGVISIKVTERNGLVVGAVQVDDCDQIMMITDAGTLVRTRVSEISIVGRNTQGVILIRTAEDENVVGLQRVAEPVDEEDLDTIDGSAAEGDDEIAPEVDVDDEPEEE

Row | SMILES | IC50
1 | C[C@@H]1CN2c3ncc(-c4nncs4)cc3CC3(C(=O)NC(=O)NC3=O)[C@H]2[C@H](C)O1 (relative stereo) [Example 1, (6aS,7S,9R)-rel-7,9-Dimethyl-3-(1,3,4-thiadiazol-2-yl)-6a,7,9,10-tetrahydro-2′H,5H-spiro[1,4-oxazino[4,3-a][1,8]naphthyridine-6,5′-pyrimidine]-2′,4′,6′(1′H,3′H)-trione] | 7 µM
2 | COc1ccncc1-c1ccc2c(n1)CC1(C(=O)NC(=O)NC1=O)[C@H]1[C@H](C)O[C@H](C)CN21 (relative stereo) [Example 71, (2R,4S,4aS)-rel-8-(4-Methoxypyridin-3-yl)-2,4-dimethyl-1,2,4,4a-tetrahydro-2′H,6H-spiro[1,4-oxazino[4,3-a][1,5]naphthyridine-5,5′-pyrimidine]-2′,4′,6′(1′H,3′H)-trione] | 16 µM
3 | C[C@@H]1CN2c3ncc(-c4ncco4)cc3CC3(C(=O)NC(=O)NC3=O)[C@H]2[C@H](C)O1 (relative stereo) [Example 97, (6aS,7S,9R)-rel-7,9-Dimethyl-3-(1,3-oxazol-2-yl)-6a,7,9,10-tetrahydro-2′H,5H-spiro[1,4-oxazino[4,3-a][1,8]naphthyridine-6,5′-pyrimidine]-2′,4′,6′(1′H,3′H)-trione] | 44 µM
4 | C[C@@H]1CN2c3ncc(-c4ccc(F)cc4)cc3CC3(C(=O)NC(=O)NC3=O)[C@H]2[C@H](C)O1 (relative stereo) [Example 81, (6aS,7S,9R)-rel-3-(4-Fluorophenyl)-7,9-dimethyl-6a,7,9,10-tetrahydro-2′H,5H-spiro[1,4-oxazino[4,3-a][1,8]naphthyridine-6,5′-pyrimidine]-2′,4′,6′(1′H,3′H)-trione] | 8 µM
5 | C[C@@H]1CN2c3ccc(-c4cncnc4)nc3CC3(C(=O)NC(=O)NC3=O)[C@H]2[C@H](C)O1 (relative stereo) [Example 73, (2R,4S,4aS)-rel-2,4-Dimethyl-8-(pyrimidin-5-yl)-1,2,4,4a-tetrahydro-2′H,6H-spiro[1,4-oxazino[4,3-a][1,5]naphthyridine-5,5′-pyrimidine]-2′,4′,6′(1′H,3′H)-trione] | 3 µM
6 | COc1ccncc1-c1cc2c(cn1)N1C[C@@H](C)O[C@@H](C)[C@@H]1C1(C2)C(=O)NC(=O)NC1=O (racemic) [Example 58, (6aS,7S,9R)-rel-3-(4-Methoxypyridin-3-yl)-7,9-dimethyl-6a,7,9,10-tetrahydro-2′H,5H-spiro[1,4-oxazino[4,3-a][1,7]naphthyridine-6,5′-pyrimidine]-2′,4′,6′(1″H3″H)-trione] | > 83 µM
7 | C[C@@H]1CN2c3ncc(-c4cnccn4)cc3CC3(C(=O)NC(=O)NC3=O)[C@H]2[C@H](C)O1 (relative stereo) [Example 52, (6aS,7S,9R)-rel-7,9-Dimethyl-3-(pyrazin-2-yl)-6a,7,9,10-tetrahydro-2′H,5H-spiro[1,4-oxazino[4,3-a][1,8]naphthyridine-6,5′-pyrimidine]-2′,4′,6′(1′H,3′H)-trione] | 5 µM
8 | Cc1noc(C)c1-c1ccc2c(n1)CC1(C(=O)NC(=O)NC1=O)[C@H]1[C@H](C)O[C@H](C)CN21 (relative stereo) [Example 77, (2R,4S,4aS)-rel-8-(3,5-Dimethylisoxazol-4-yl)-2,4-dimethyl-1,2,4,4a-tetrahydro-2′H,6H-spiro[1,4-oxazino[4,3-a][1,5]naphthyridine-5,5′-pyrimidine]-2′,4′,6′(1′H,3′H)-trione] | 8 µM
9 | C[C@@H]1CN2c3c(ccnc3Cl)CC3(C(=O)NC(=O)NC3=O)[C@H]2[C@H](C)O1 (relative stereo) [Example 12, (6aS,7S,9R)-rel-1-chloro-7,9-dimethyl-6a,7,9,10-tetrahydro-1′H,5H-spiro[[1,4]oxazino[4,3-a][1,7]naphthyridine-6,5′-pyrimidine]-2′,4′,6′(3′H)-trione] | 21 µM
10 | C[C@@H]1CN2c3cnc(-c4ccncc4)cc3CC3(C(=O)NC(=O)NC3=O)[C@H]2[C@H](C)O1 (relative stereo) [Example 65, (6aS,7S,9R)-rel-7,9-Dimethyl-3-(pyridin-4-yl)-6a,7,9,10-tetrahydro-2′H,5H-spiro[1,4-oxazino[4,3-a][1,7]naphthyridine-6,5′-pyrimidine]-2′,4′,6′(1′H,3′H)-trione] | > 10 µM
11 | C[C@@H]1CN2c3cnc(-c4cscn4)cc3CC3(C(=O)NC(=O)NC3=O)[C@H]2[C@H](C)O1 (relative stereo) [Example 102, (6aS,7S,9R)-rel-7,9-Dimethyl-3-(1,3-thiazol-4-yl)-6a,7,9,10-tetrahydro-2′H,5H-spiro[1,4-oxazino[4,3-a][1,7]naphthyridine-6,5′-pyrimidine]-2′,4′,6′(1′H,3′H)-trione] | 16 µM
12 | C[C@@H]1CN2c3ncc(-c4cncn4C)cc3CC3(C(=O)NC(=O)NC3=O)[C@H]2[C@H](C)O1 (relative stereo) [Example 90, (6aS,7S,9R)-rel-7,9-Dimethyl-3-(1-methyl-1H-imidazol-5-yl)-6a,7,9,10-tetrahydro-2′H,5H-spiro[1,4-oxazino[4,3-a][1,8]naphthyridine-6,5′-pyrimidine]-2′,4′,6′(1′H,3′H)-trione] | 21 µM
13 | C[C@@H]1CN2c3ccc(-c4nc5ccccc5s4)nc3CC3(C(=O)NC(=O)NC3=O)[C@H]2[C@H](C)O1 (relative stereo) [Example 88, (2R,4S,4aS)-rel-8-(1,3-Benzothiazol-2-yl)-2,4-dimethyl-1,2,4,4a-tetrahydro-2′H,6H-spiro[1,4-oxazino[4,3-a][1,5]naphthyridine-5,5′-pyrimidine]-2′,4′,6′(1′H,3′H)-trione] | 2 µM
14 | C[C@@H]1CN2c3ccc(-c4nccs4)nc3CC3(C(=O)NC(=O)NC3=O)[C@H]2[C@H](C)O1 (relative stereo) [Example 85, (2R,4S,4aS)-rel-2,4-Dimethyl-8-(1,3-thiazol-2-yl)-1,2,4,4a-tetrahydro-2′H,6H-spiro[1,4-oxazino[4,3-a][1,5]naphthyridine-5,5′-pyrimidine]-2′,4′,6′(1′H,3′H)-trione] | 8 µM
15 | C[C@@H]1CN2c3cnc(-c4ccnn4C)cc3CC3(C(=O)NC(=O)NC3=O)[C@H]2[C@H](C)O1 (relative stereo) [Example 57, (6aS,7S,9R)-rel-7,9-dimethyl-3-(1-methyl-1H-pyrazol-5-yl)-6a,7,9,10-tetrahydro-2′H,5H-spiro[1,4-oxazino[4,3-a][1,7]naphthyridine-6,5′-pyrimidine]-2′,4′,6′(1′H,3′H)-trione] | 9 µM
16 | C[C@@H]1CN2c3ncc(-c4ccc(-c5ccn[nH]5)s4)cc3CC3(C(=O)NC(=O)NC3=O)[C@H]2[C@H](C)O1 (relative stereo) [Example 36, (6aS,7S,9R)-rel-7,9-Dimethyl-3-[5-(1H-pyrazol-5-yl)thiophen-2-yl]-6a,7,9,10-tetrahydro-2′H,5H-spiro[1,4-oxazino[4,3-a][1,8]naphthyridine-6,5′-pyrimidine]-2′,4′,6′(1′H,3′H)-trione] | 2 µM
17 | COc1ccc(C#Cc2cc3c(nc2F)N2C[C@@H](C)O[C@@H](C)[C@@H]2C2(C3)C(=O)NC(=O)NC2=O)cc1 (relative stereo) [Example 23, (6aS,7S,9R)-rel-2-Fluoro-3-((4-methoxyphenyl)ethynyl)-7,9-dimethyl-6a,7,9,10-tetrahydro-1′H,5H-spiro[[1,4]oxazino[4,3-a][1,8]naphthyridine-6,5′-pyrimidine]-2′,4′,6′(3′H)-trione] | 6 µM
18 | C[C@@H]1CN2c3ncc(-c4ccncc4)cc3CC3(C(=O)NC(=O)NC3=O)[C@H]2[C@H](C)O1 (relative stereo) [Example 50, (6aS,7S,9R)-rel-7,9-Dimethyl-3-(pyridin-4-yl)-6a,7,9,10-tetrahydro-2′H,5H-spiro[1,4-oxazino[4,3-a][1,8]naphthyridine-6,5′-pyrimidine]-2′,4′,6′(1′H,3′H)-trione] | 8 µM
19 | C[C@@H]1CN2c3ccc(-c4cc5ccccc5o4)nc3CC3(C(=O)NC(=O)NC3=O)[C@H]2[C@H](C)O1 (relative stereo) [Example 68, (2R,4S,4aS)-rel-8-(1-Benzofuran-2-yl)-2,4-dimethyl-1,2,4,4a-tetrahydro-2′H,6H-spiro[1,4-oxazino[4,3-a][1,5]naphthyridine-5,5′-pyrimidine]-2′,4′,6′(1′H,3′H)-trione] | 8 µM
20 | C[C@@H]1CN2c3nc(F)c(C#Cc4ccccn4)cc3CC3(C(=O)NC(=O)NC3=O)[C@H]2[C@H](C)O1 (relative stereo) [Example 21, (6aS,7S,9R)-rel-2-fluoro-7,9-dimethyl-3-(pyridin-2-ylethynyl)-6a,7,9,10-tetrahydro-1′H,5H-spiro[[1,4]oxazino[4,3-a][1,8]naphthyridine-6,5′-pyrimidine]-2′,4′,6′(3′H)-trione] | 10 µM
21 | Cc1nnc(-c2cc3c(nc2F)N2C[C@@H](C)C[C@@H](C)[C@@H]2C2(C3)C(=O)NC(=O)NC2=O)s1 [Example 17, (6aR,7R,9S)-2-Fluoro-7,9-dimethyl-3-(5-methyl-1,3,4-thiadiazol-2-yl)-5,6a,7,8,9,10-hexahydro-1′H-spiro[pyrido[1,2-a][1,8]naphthyridine-6,5′-pyrimidine]-2′,4′,6′(3′H)-trione] | 6 µM
22 | C[C@@H]1CN2c3nc(F)ccc3CC3(C(=O)NC(=O)NC3=O)[C@H]2[C@H](C)O1 (relative stereo) [Example 20, (6aS,7S,9R)-rel-2-Fluoro-7,9-dimethyl-6a,7,9,10-tetrahydro-1′H,5H-spiro[[1,4]oxazino[4,3-a][1,8]naphthyridine-6,5′-pyrimidine]-2′,4′,6′(3′H)-trione] | 25 µM
23 | CC1C[C@@H](C)[C@H]2N(C1)c1ncccc1CC21C(=O)NC(=O)NC1=O (stereo partly drawn) [Example 7, (6aR,7R)-7,9-Dimethyl-5,6a,7,8,9,10-hexahydro-1′H-spiro[pyrido[1,2-a][1,8]naphthyridine-6,5′-pyrimidine]-2′,4′,6′(3′H)-trione] | 3 µM
